According to patent US5599812A, “Tricyclic pyrrolopyrazine 5-HT3 -active compounds” (Adir Et Compagnie, priority 1993, dated 1997):

Assays:
5-HT3 receptors [1] = target: T1, 5-HT3 receptors (Mus musculus, UniProt P23979); test: Accumulation of 14C-guanidinium in NG 108-15 cells; details: for multiplication of the intracellular accumulation of 14C-guanidinium: fold, agonist at 10 μM-0.1 mM
T1 sequence (P23979 24-489): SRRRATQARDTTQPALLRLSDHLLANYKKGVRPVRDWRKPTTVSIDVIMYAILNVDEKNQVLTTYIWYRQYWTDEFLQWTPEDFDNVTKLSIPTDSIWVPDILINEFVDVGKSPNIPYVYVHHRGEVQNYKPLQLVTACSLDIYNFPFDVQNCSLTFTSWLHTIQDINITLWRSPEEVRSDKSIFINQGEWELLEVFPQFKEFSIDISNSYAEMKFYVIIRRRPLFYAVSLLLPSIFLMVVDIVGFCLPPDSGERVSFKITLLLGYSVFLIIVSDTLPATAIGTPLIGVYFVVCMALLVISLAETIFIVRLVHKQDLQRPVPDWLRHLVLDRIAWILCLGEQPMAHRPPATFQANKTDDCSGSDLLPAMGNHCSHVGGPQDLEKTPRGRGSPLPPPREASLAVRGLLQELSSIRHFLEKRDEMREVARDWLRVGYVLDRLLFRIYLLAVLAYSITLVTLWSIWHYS
Experimental: The accumulation of ^14 -C-guanidinium in NG 108-15 cells is measured and makes it possible to study the interaction of the tested compounds with 5-HT3 receptors, knowing that this accumulation is stimulated by agonists of 5-HT3 receptors.
The NG 108-15 hybrid clone (neuroblastoma-glioma) is cultured under standard conditions (Dulbecco's medium to which 40 mM of sodium bicarbonate, 1.8 mM of L-glutamine, 0.1 mM of hypoxanthine, 1 μM of aminopterin, 16 μM of thymine and 10% of fetal calf serum are added) at 37° C. in an atmosphere enriched in CO2 (7%). At confluence (.congruent.3.5×10^5 cells in dishes with diameters of 35 mm), the culture medium is sucked off and the cell lawn is rapidly washed with 3 cm^3 of a HEPES (20 mM) buffer containing 145 mM of NaCl, 5.4 mM of KCl, 1.8 mM of CaCl2, 1.0 mM of MgCl2 and 20 mM of glucose, pH 7.4. […] The incubation lasts 10 minutes at 37° C. The medium is then sucked off and the cells are rapidly washed twice with 3 cm^3 of the washing buffer in which the NaCl has been fully replaced by an equimolar concentration of choline chloride. Finally, the cell lawn is taken up in 0.5 cm^3 of 0.4N sodium hydroxide solution and the accumulated radioactivity is counted by spectrometry in liquid medium (Aquasol).

5-HT3 receptors [2] = target: T2, 5-HT3 receptors (Rattus norvegicus, UniProt P35563); test: Bradycardic Bezold-Jarisch reflex in anesthetized rats; assay type: in vivo, Sprague-Dawley; details: for fall in the cardiac rhythm / duration of the fall in the cardiac rhythm: i.v. injection of 30 μg; for duration of the fall in the cardiac rhythm: approximately; for dose completely preventing the agonist-induced bradycardia: prior i.v. administration, against 30 μg i.v. agonist
T2 construct: bradycardia induced by stimulation of 5-HT3 receptors on vagal afferent neurons; from tissue; host or cells: whole anesthetized rat; receptors on vagal afferent neurons
T2 sequence (P35563 24-483): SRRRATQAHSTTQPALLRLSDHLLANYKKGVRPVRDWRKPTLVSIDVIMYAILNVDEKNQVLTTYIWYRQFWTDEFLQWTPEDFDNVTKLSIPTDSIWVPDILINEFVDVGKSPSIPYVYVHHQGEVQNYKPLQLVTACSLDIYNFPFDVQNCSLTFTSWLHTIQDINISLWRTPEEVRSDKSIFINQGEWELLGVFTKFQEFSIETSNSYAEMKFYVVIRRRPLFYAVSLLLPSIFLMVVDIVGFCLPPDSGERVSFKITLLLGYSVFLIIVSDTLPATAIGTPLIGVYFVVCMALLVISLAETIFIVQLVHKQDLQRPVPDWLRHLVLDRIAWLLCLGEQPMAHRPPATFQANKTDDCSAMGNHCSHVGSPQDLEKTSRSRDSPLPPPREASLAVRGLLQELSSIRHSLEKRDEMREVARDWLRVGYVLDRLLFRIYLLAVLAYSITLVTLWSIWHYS
Experimental: Bradycardia (Bezold-Jarisch reflex) is induced by the intravenous injection of 5-HT3 serotonin in rats anesthetized with urethane.
This response consists of a violent but transitory bradycardia induced by stimulation of 5-HT3 receptors on vagal afferent neurons.
The animal (adult male rat, Sprague-Dawley strain, 250-300 g) is first of all anesthetized with urethane (1.4 g/kg i.p.) and then a tracheotomy is performed in order to implant a tracheal cannula. A catheter (0.3 mm)is introduced into the abdominal aorta via the femoral artery for the continuous recording of the arterial pressure and the cardiac rhythm.
Bradycardia is expressed as percentage of lowering (maximum) of the base rhythm, before any treatment (means±M.S.D.).

[3] = Solubility in DMSO (NMR remark); assay type: physicochemical; details: d6-DMSO, tetrahydrochloride
[4] = doses (I.V.) 30, 60 and 120 μg·Kg^-1 (one value given)

Cc1[nH]c2ccc(O)cc2c1CCN [2-methyl-5-hydroxytryptamine]
multiplication of the intracellular accumulation of 14C-guanidinium (5-HT3 receptors [1]): 5
fall in the cardiac rhythm (5-HT3 receptors [2]): -80%
duration of the fall in the cardiac rhythm (5-HT3 receptors [2]): 4 to 5 s

c1ccc(CN2CCN(c3nc4ccccc4n4cccc34)CC2)cc1 [Example 1, 4-(4-benzylpiperazino)pyrrolo[1,2-a]quinoxaline]
EC50 (5-HT3 receptors [1]): ~100 nM

Clc1ccc2c(c1)nc(N1CCN(Cc3ccccc3)CC1)c1cccn12 [Example 3, 4-(4-benzylpiperazino)-7-chloropyrrolo[1,2-a]quinoxaline]
EC50 (5-HT3 receptors [1]): 50 nM
Agonist Effect, Bradycardia % (5-HT3 receptors [2]; [4]): 0%

Fc1ccc(CN2CCN(c3nc4cc(Cl)ccc4n4cccc34)CC2)cc1 [Example 4, 7-CHLORO-4-[4-(4-FLUOROBENZYL)PIPERAZINO]PYRROLO[1,2-a]QUINOXALINE]
EC50 (5-HT3 receptors [1]): 100 nM
Antagonist effect at (concentration) (5-HT3 receptors [1]; antagonist effect, 14C-guanidinium accumulation, NG 108-15 cells): 3 nM
Agonist Effect, Bradycardia % (5-HT3 receptors [2]; [4]): 0%

c1ccc(CN2CCN(c3nc4cccnc4n4cccc34)CC2)cc1 [Example 11, 6-(4-benzylpiperazino)pyrido[3,2-e]pyrrolo [1,2-a]pyrazine]
EC50 (5-HT3 receptors [1]): 30 nM
Antagonist effect at (dose) (5-HT3 receptors [2]; I.V., rat, Bezold-Jarisch reflex): 120 µg/kg
Agonist Effect, Bradycardia % (5-HT3 receptors [2]; dose (I.V.) 120 μg·Kg^-1, n = 7, maximum lowering of base rhythm, means ± M.S.D.): 59.4 ± 7.2%

c1ccc(CN2CCN(c3ccc4nc(N5CCN(Cc6ccccc6)CC5)c5cccn5c4n3)CC2)cc1 [Example 93, 2,6-bis(4-benzylpiperazino)pyrido[3,2-e]pyrrolo[1,2-a]pyrazine]
solubility in DMSO [3]: insoluble

Cc1nccn1CC1CCc2c(c3ccccc3n2C)C1=O (stereo not shown) [ondansetron]
dose completely preventing the agonist-induced bradycardia (5-HT3 receptors [2]): 1 µg/kg

NCCc1c[nH]c2ccc(O)cc12 [serotonin]
multiplication of the intracellular accumulation of 14C-guanidinium (5-HT3 receptors [1]): 5
Agonist Effect, Bradycardia % (5-HT3 receptors [2]; dose (I.V.) 30 μg·Kg^-1, n = 21, maximum lowering of base rhythm, means ± M.S.D.): 68.0 ± 2.3%
fall in the cardiac rhythm (5-HT3 receptors [2]): -80%
duration of the fall in the cardiac rhythm (5-HT3 receptors [2]): 4 to 5 s

COc1cc(N)c(Cl)cc1C(=O)NC1CN2CCC1CC2 (stereo not shown) [zacopride]
dose completely preventing the agonist-induced bradycardia (5-HT3 receptors [2]): 1 µg/kg
